Measurements taken from patent US9322049B2, “Activation and activators of SirT6” (CORNELL UNIVERSITY, priority 2009, dated 2016).
Like-named read-outs stand apart in the source and are kept apart here.

What was measured:
SirT6 [1] = molecular target: T1, SirT6 (Homo sapiens, UniProt Q8N6T7); assay: Activation of SIRT6 by nucleosides or nucleotides, HPLC of AADPR (Example 8); type: biochemical; details: 800 μM NAD+, 500 μM H3 peptide, 11.3 μM SIRT6
T1 construct: The protein expression and purification were the same as the full length SIRT6 as described above; made in house; host or cells: E. coli BL21 Codon-plus RIPL
Procedure: Reactions containing 800 μM NAD^+, 500 μM H3 peptide, and 100 mM phosphate buffer at pH 7.5, with varying concentrations of nucleosides or nucleotides were initiated by addition of SIRT6 enzyme to a concentration of 11.3 μM. Reactions were incubated for 2 hours at 37° C. and quenched by addition of trifluoroacetic acid to pH 2. After centrifugation to remove precipitates, reactions were injected on HPLC for activity analysis. Production of 2′- and 3′-AADPR were analyzed at 260 nm.

[2] = molecular target: T2, truncated SirT6 (deletion of N terminal 17 amino acids) (Homo sapiens, UniProt Q8N6T7); assay: Deacetylation rate of truncated SirT6 with suramin or single stranded DNA; type: biochemical; details: 50 μM suramin or 100 ng/μl single stranded DNA; 800 μM NAD, 480 μM H3, 10 μM enzyme
T2 construct: The truncated SIRT6 was cloned similarly with the full length SIRT6; poly-histidine (pET28a) (N); made in house; host or cells: E. coli BL21 Codon-plus RIPL
Description: The deacetylation rate of different truncated SirT6 was normalized to the rate of full length SirT6 for the comparison.
The truncated SIRT6 was cloned similarly with the full length SIRT6. The primers used in the cloning of different truncated SIRT6 are the following: SIRT6Δ2-7 Forward 5′ GCTAGC ATGGGGCTGTCGCCGTACGCG 3′ (SEQ ID NO: 4); SIRT6Δ2-12 Forward 5′ GCTAGC ATG […] 3′ (SEQ ID NO: 5); SIRT6Δ2-18 Forward 5′ GCTAGC ATGGGCCTCCCGGAGATCTTCGAC 3′ (SEQ ID NO: 6); SIRT6Δ2-51 Forward 5′ 5′ GCTAGC ATGACGGGTGCCGGCATCAGCACT 3′ (SEQ ID NO: 7). The common reverse primer is 5′[…] 3′ (SEQ ID NO: 8). The truncated SIRT6 was amplified by PCR reaction. The PCR product was then ligated into pSTblue-1 (Novagen). After digestion with NheI and BamHI, the fragment containing SIRT6 gene was ligated into pET28a vector (Novagen). The SIRT6 truncated sequence in pET28a plasmid was confirmed by DNA sequencing, and the plasmid was then transformed into BL21Codon-plus RIPL cells (Stratagene). The protein expression and purification were the same as the full length SIRT6 as described above.

SirT6 [3] = molecular target: T1, SirT6; assay: Determination of Kd of suramin for SirT6 activation by HPLC (Example 1); type: biochemical
Procedure: FIG. 2C depicts the determination of Kd of suramin for activation of SirT6. […] After 2 hours incubation at 37° C., the deacetylated H3 was separated from H3 by gradient (0˜30%) acetonitrile in 0.1% TFA using a C18 column, and analyzed by integrating its area at 215 nm wavelength.
The precipitated proteins and other insolubles were removed by centrifugation at 15,000 rpm for 5 minutes. The peptides were separated by a Waters Xterra RP-18 column using a gradient of 0-30% acetonitrile in 0.1% trifluoroacetic acid. […] The turnover rates versus […] were plotted and fitted to the equation: Activation (Fold)=1+m*x/(Kd+x) using the software Kaleidagraph.

SirT6 [4] = molecular target: T1, SirT6; assay: Gel shift assay of DNA association to SirT6 (Example 5); type: binding; details: 1 mM suramin; 50 ng/μl linearized pSTBlue, 10 μM SirT6
Procedure: Lane 1, DNA+NAD; Lane 2, DnA+H3; Lane 3, DNA+NAD+H3; Lane 4, DNA+SirT6; Lane 5, DNA+NAD+SirT6; Lane 6, DNA+H3+SirT6; Lane 7, DNA+NAD+H3+SirT6; Lane 8, DNA+SirT6+1 mM suramin; Lane 9, DNA+NAD+SirT6+1 mM suramin; Lane 10, DNA+H3+SirT6+1 mM suramin; Lane 11, DNA+NAD+H3+SirT6+1 mM suramin; Lane 12, DNA only. […] Lane 1, DNA+H3; Lane 2, DNA+H4; Lane 3, DNA+SirT6; Lane 4, DNA+H3+SirT6; Lane 5, DNA+H4+SirT6; Lane 6, DNA+NAD+H3+SirT6; Lane 7, DNA+NAD+H4+SirT6; Lane 8, DNA+SirT6+1 mM suramin; Lane 9, DNA+H3+SirT6+1 mM suramin; Lane 10, DNA+H4+SirT6+1 mM suramin; Lane 11, DNA+NAD+H3+SirT6+1 mM suramin; Lane 12, DNA+NAD+H4+SirT6+1 mM suramin; Lane 13, DNA only. 6 μl of each sample involving 50 ng/μl linearized pSTBlue plasmid, 800 μM NAD, 10 μM SirT6, 480 μM H3/H4, and/or 1 mM suramin were loaded to 0.6% native agarose gel containing ethidium bromide and ran at 100 V for one and half hours. DNA bound to SirT6 stayed in the wells and free DNA ran to the bottom of the gel. The top arrow indicated the large complex formed by DNA and SirT6.
The plasmid pSTBlue was linearized by EcoRI, BamHI, or EcoRV, and then purified by DNA gel extraction kit (Novagen) or […]™ III kit (MP Biomedicals, LLC). 6 μl of each sample contained 50 ng/μl of linearized pSTBlue, 800 μM NAD, 10 μM SirT6/truncated form, 480 μM H3, and/or 1 mM suramin as indicated. […]

SirT6-DNA complex = molecular target: T3, SirT6-DNA complex (Homo sapiens, UniProt Q8N6T7); assay: Suramin competition with binding of linearized DNA to SIRT6 (Example 6); details: for Kd: read-out: Kd of suramin for dissociation of linearized DNA from SirT6
T3 construct: The protein expression and purification were the same as the full length SIRT6 as described above; made in house; host or cells: E. coli BL21 Codon-plus RIPL
Procedure: The linearized DNA was incubated with SirT6 and Ni-NTA resin. The resin was washed as described in Materials and Methods, and the complex of SirT6-DNA was dissociated by 1 mM suramin. The parallel experiments were done in the presence of 500 uM H3 peptide. DNA bound to SirT6 was quantified and fit to Michaelis-Menten equation to get Kd of DNA binding to the enzyme. […] The single stranded DNA was incubated with SirT6 and Ni-NTA resin. The resin was washed and the complex of SirT6-ssDNA was dissociated by 1 mM suramin. The parallel experiments were done in the presence of 500 uM H3 peptide. […] The linearized DNA was incubated with SirT6 and Ni-NTA resin with or without H3 peptide. After washing, the resin was incubated with different concentration of surmain. The dissociated DNA was quantified by gel electrophoresis. […] After the resin was washed, DNA was dissociated with 1 mM suramin and quantified by gel electrophoresis. Lane 1, 150 ng circular pSTBlue (C-pSTBlue); Lane 2, 150 ng pSTBlue cut with BamHI (B-pSTBlue); Lane 3, 150 ng pSTBlue cut with EcoRV (E-pSTBlue); Lane 4, circular pSTBlue bound to SirT6; Lane 5, pSTBlue cut with BamHI bound to SirT6; Lane 6, pSTBlue cut with EcoRV bound to SirT6; Lane 7, circular pSTBlue bound to SirT6 in the presence of H3; Lane 8, pSTBlue cut with BamHI bound to SirT6 in the presence of H3; Lane 9, pSTBlue cut with EcoRV bound to SirT6 in the presence of H3; Lane 10, DNA ladder.
In order to test if suramin competed with the binding of DNA to SIRT6, 20 ng/μl pSTBlue was incubated with 5 μM SIRT6, 25% slurry Ni-NTA resin, and/or 1 mM H3 peptide. After incubation for 1 hour at room temperature, the SIRT6-DNA-resin complex was washed with 10 and 20 mM imidazole, 100 mM phosphate buffer, pH 7.5 as described above. The SIRT6-DNA-resin complex was incubated with different concentrations of suramin. The dissociated DNA was then quantified by 0.8% agarose gel electrophoresis and the DNA level was fitted to Michaelis-Menten equation using the software Kaleidagraph.

SirT6 [5] = molecular target: T1, SirT6; assay: Determination of Kd of DNA for SirT6 activation by HPLC (Example 2); type: biochemical; details: 800 μM NAD, 480 μM H3, 10 μM SirT6, 2 hours 37° C.; unit given as mM
Procedure: FIG. 5A depicts a schematic of DNA structure. […] After 2 hours incubation at 37° C., either the deacetylated H3 was separated from H3 in the reaction containing the digested calf thymus DNA or AADPR was separated from other components in the reaction containing ssDNA, the plasmid, or dsDNA.
The plasmid pSTBlue was digested with BamHI and EcoRV and purified by […]™ III kit. […] The AADPR was separated by HPLC and the quantified data were fit into Michaelis-Menten equation to get Km of H3.
In the enzymatic reaction, the following DNA was used.
Calf thymus DNA (USB Corporation), which was digested with EcoRI and then purified using Spinprep Gel DNA Kit (Novagen);
ssDNA (5′ […] 3′ (SEQ ID NO: 9), Integrated DNA Technologies);
dsDNA (forward 5′ […] 3′ (SEQ ID NO: 10), reverse 5′ […] 3′ (SEQ ID NO: 11), Integrated DNA Technologies); and
pSTBlue plasmid, which was amplified using DH5α cells and purified by WIZARD™ PLUS (Midiprep) DNA purification system (Promega).
The precipitated proteins and other insolubles were removed by centrifugation at 15,000 rpm for 5 minutes. DNA in the supernatant was further removed by centrifugation at 15,000 rpm for 10 minutes using Microcon with 10 kDa cutoff (Millipore). In the experiment with the digested calf thymus DNA, the peptides were separated by a Waters Xterra RP-18 column using a gradient of 0-30% acetonitrile in 0.1% trifluoroacetic acid. […]

T1 sequence (Q8N6T7 whole entry): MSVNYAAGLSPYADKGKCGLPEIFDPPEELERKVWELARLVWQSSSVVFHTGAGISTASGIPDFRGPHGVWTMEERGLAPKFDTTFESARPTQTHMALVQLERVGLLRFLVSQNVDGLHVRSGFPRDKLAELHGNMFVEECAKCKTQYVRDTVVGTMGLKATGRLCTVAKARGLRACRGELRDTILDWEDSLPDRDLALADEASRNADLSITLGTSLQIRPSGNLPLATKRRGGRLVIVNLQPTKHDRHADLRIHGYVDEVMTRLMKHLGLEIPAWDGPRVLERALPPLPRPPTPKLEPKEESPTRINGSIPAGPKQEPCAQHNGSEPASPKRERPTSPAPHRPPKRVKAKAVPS
T3 sequence (Q8N6T7 whole entry, one chain of several): as the sequence (Q8N6T7 whole entry) above
T2 sequence (Q8N6T7 with tags, fused parts or gaps): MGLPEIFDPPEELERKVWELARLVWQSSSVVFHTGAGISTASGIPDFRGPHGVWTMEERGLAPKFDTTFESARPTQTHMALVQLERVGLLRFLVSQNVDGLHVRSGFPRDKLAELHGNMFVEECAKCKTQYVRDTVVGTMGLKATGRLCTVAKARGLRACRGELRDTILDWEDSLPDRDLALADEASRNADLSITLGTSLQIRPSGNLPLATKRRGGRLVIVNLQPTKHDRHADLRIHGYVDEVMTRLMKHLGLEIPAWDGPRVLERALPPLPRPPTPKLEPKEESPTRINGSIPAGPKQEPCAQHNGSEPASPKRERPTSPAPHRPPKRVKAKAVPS

Question: With `NC(=O)c1ccc[n+]([C@@H]2O[C@H](COP(=O)([O-])O)C(O)C2(Cl)Cl)c1` (stereo partly drawn) [gem-diCl-NMN] as the molecule, how does the SIRT6 activated (SirT6 [1]; at 500 μM) read?
Answer: Its SIRT6 activated is 90% activated at 500 μM.

Question: For `NC(=O)c1ccc[n+]([C@@H]2O[C@H](CO)C(O)C2(Cl)Cl)c1` (stereo partly drawn) [gem-diCl-NR], which SIRT6 activated (SirT6 [1]; at 1 mM) is on record?
Answer: The SIRT6 activated was 30% activated at 1 mM.

Question: `NC(=O)c1ccc[n+]([C@@H]2O[C@H](CO)[C@@H](O)C2(F)F)c1` [gem-diF-NR, 1-(2′-deoxy-2′,2′-difluoro-ribofuranosyl)-nicotinamide] was tested. Which SIRT6 activated (SirT6 [1]; at 500 μM) did it give?
Answer: The SIRT6 activated was 30% activated at 500 μM.

Question: With `NC(=O)c1ccc[n+]([C@@H]2O[C@H](CO)[C@H](O)C2F)c1` (stereo partly drawn) [ribo-F-NR, 1-(2-deoxy-2-fluoro-D-ribofuranosyl)-nicotinamide] as the molecule, how does the SIRT6 activated (SirT6 [1]; at 550 μM) read?
Answer: The SIRT6 activated was 17% activated at 550 μM.

Question: How did the “Activation of truncated SirT6 deacetylation” value [2] turn out when `Cc1ccc(C(=O)Nc2ccc(S(=O)(=O)O)c3cc(S(=O)(=O)O)cc(S(=O)(=O)O)c23)cc1NC(=O)c1cccc(NC(=O)Nc2cccc(C(=O)Nc3cc(C(=O)Nc4ccc(S(=O)(=O)O)c5cc(S(=O)(=O)O)cc(S(=O)(=O)O)c45)ccc3C)c2)c1` [suramin] was run?
Answer: The value was “lost of activation”.

Question: What about the Kd (SirT6 [3]) of the same molecule?
Answer: Its Kd is 54.7 µM.

Question: And the “Association of DNA to SirT6” value (SirT6 [4])?
Answer: Its value is “weakened”.

Question: What about the “Vmax of dissociated DNA” value (SirT6-DNA complex; in the absence of H3) of the same molecule?
Answer: Its value is 6.37 ng/µL.

Question: What about the Kd (SirT6-DNA complex; in the absence of H3) of the same molecule?
Answer: Its Kd is 72.4 µM.

Question: What about the “Vmax of dissociated DNA” value (SirT6-DNA complex; in the presence of H3) of the same molecule?
Answer: Its value is 17.8 ng/µL.

Question: And the Kd (SirT6-DNA complex; in the presence of H3)?
Answer: The Kd was 129 µM.

B1: dsDNA: dsDNA, forward SEQ ID NO: 10, reverse SEQ ID NO: 11, Integrated DNA Technologies (nucleic acid)
sense: AAGCATTTATCAGGGTTATTGTCTCATGAGCGGAT
antisense: ATCCGCTCATGAGACAATAACCCTGATAAATGCTT
modifications: DNA, backbone and methylation of C not given here
Question: How did the Kd (SirT6 [5]) turn out when B1 was run?
Answer: The Kd was over 10 mM.
